Measurements: patent publication US11638425B2, “Agent for inducing stress tolerance in plants” (Menicon Co. Ltd., priority 2017, dated 2023)

How the values were obtained:
[1] = tested on: Arabidopsis thaliana; assay: Heat tolerance induction test based on chlorophyll concentration; assay type: in vivo; conditions: 50 μM in medium; heat-treated at 44° C. for 1 hour; 3 days culture after
Method: A ⅕ MS medium was prepared in a 6-well plate, and filter paper was placed thereon. 12 individuals of wild-type Arabidopsis thaliana were seeded per well and grown at 22° C. for 7 days in a plant incubator under 16-hour light and 8-hour dark conditions. Next, the naphthoquinone compound of each example (shown in Table 3) dissolved in DMSO was added to a ⅕ MS medium, and each medium (final concentration: 50 μM) was prepared in a 6-well plate (final concentration of DMSO: 1.0% by volume). A medium containing 1.0% by volume of DMSO was used as a control.
The Arabidopsis thaliana grown for 7 days in the 6-well plate was transplanted, together with the filter paper, to the medium containing the compound and cultured for 1 day in a plant incubator. The plate was placed in a plastic bag and heat-treated at 44° C. for 1 hour in a water bath. After the heat treatment, culture was performed for 3 days in a plant incubator. The leaves of 4 Arabidopsis thaliana individuals were cut out, and chlorophyll was extracted with 300 μL of ethanol. The absorbance of each extract was measured at 649 nm and 665 nm, and the chlorophyll concentration (mg/L) was calculated. A higher chlorophyll concentration means that heat tolerance is better.
The shikonin compound of each example (shown in Table 4) dissolved in DMSO was added to a ⅕ MS medium, and each medium (final concentration: 50 μM) was prepared in a 6-well plate (final concentration of DMSO: 1.0% by volume). A medium containing 1% by volume of DMSO was used as a control. The other test procedures were performed in the same way as in Test Example 3.
The Lithospermi radix extract used was Shikonix Liquid (BG) (trade name, manufactured by Ichimaru Pharcos Co., Ltd.) containing a Lithospermum erythrorhizon root extract. The Shikonix Liquid contained, as major components, shikonin compounds such as acetylshikonin, β-hydroxyisovalerylshikonin, and isobutyrylshikonin. The Shikonix Liquid also contained, as additional minor components, α-methyl-n-butylshikonin, β,β-dimethylacrylshikonin, isovalerylshikonin, and shikonin.
The Shikonix Liquid (BG) was added at a dilution ratio of 150-fold to a ⅕ MS medium. The same amount of water was added as a control. ThermoZyme (manufactured by Fujimikogyo Co., Ltd.) was added at a dilution ratio of 150-fold as a positive control (Reference Example). The other test procedures were performed in the same way as in Test Example 3.

[2] = tested on: maize; assay: Drought tolerance improvement test of maize; assay type: in vivo; conditions: 10 μM, 2 mL/cell; 19 days without water, counted 5 days after water addition
Method: Four parts each involving 9 cells (3×3) were cut out of a 72-cell tray. Seedling soil was placed therein, and water was added. 4 seeds of maize were seeded per cell. The temperature was set to 20° C. using a plant growth chamber, followed by cultivation under 16-hour light and 8-hour dark conditions. After budding, each naphthoquinone compound dissolved in DMSO was diluted to 10 μM (final concentration) with deionized water to prepare a test solution of each example (final concentration of DMSO: 1.0% by volume). Each test solution was sprayed to leaf surface in one of the cell trays. The volume of the test solution sprayed was set to 2 mL/cell. The same volume of water was sprayed to the other cell tray and used as a control. After the spraying, cultivation was continued without the addition of water. 19 days after the spraying, water was added to the soil. 5 days after the water addition, the number of maize survivors was counted and divided by the initial number of growing plants to calculate a survival rate (%).

[3] = tested on: maize; assay: Salt tolerance improvement test of maize; assay type: in vivo; conditions: 10 μM, 2 mL/cell; 1.0% NaCl five times every two days; fresh weight
Method: (§1) Two parts each involving 9 cells (3×3) were cut out of a 72-cell tray. Seedling soil was placed therein, and water was added. 4 seeds of maize were seeded per cell. The temperature was set to 20° C. using a plant growth chamber, followed by cultivation under 16-hour light and 8-hour dark conditions. After budding, Shikonix Liquid (BG) (manufactured by Ichimaru Pharcos Co., Ltd.) was diluted 500-fold and sprayed as the Lithospermi radix extract to leaf surface in one of the cell trays. The volume of the Shikonix Liquid sprayed was set to 2 mL/cell. The same volume of water was sprayed to the other cell tray and used as a control. Two days later, a 1.0% NaCl solution was prepared and absorbed from the underside of each cell tray. The NaCl solution treatment was performed five times every two days. The above-ground parts were cut off, and their fresh weights were measured. An average value (g/plant) was calculated.
as §1, with “Four parts” for “Two parts”, “budding, each naphthoquinone compound dissolved in DMSO” for “budding, Shikonix Liquid (BG) (manufactured by Ichimaru Pharcos Co., Ltd.)”, “diluted to 10 μM (final concentration) with deionized water to prepare a test solution of each example (final concentration of DMSO: 1.0% by volume). Each test solution was” for “diluted 500-fold and”, “sprayed” for “sprayed as the Lithospermi radix extract”, “the test solution” for “the Shikonix Liquid”

[4] = tested on: HSP17.6C-C1 of Arabidopsis thaliana; assay: HSP expression test (HSP17.6C-C1 upstream region linked to GUS, 4-MU production); assay type: in vivo; parameters: key: 4-MU per plant divided by 4-MU of 50 μM geldanamycin positive control; conditions: soaked 6 hours at 22° C., positive control 50 μM geldanamycin
Method: First, a construct linked to β-glucuronidase (GUS) gene was introduced to 1 kb upstream of HSP17.6C-C1 of Arabidopsis thaliana (the family Brassicaceae) to prepare a mutant. Each naphthoquinone compound (shown in Table 1) dissolved in DMSO was diluted to 1 μM, 10 μM, 100 μM, or 1000 μM (final concentration) with deionized water to prepare a test solution of each example (final concentration of DMSO: 1.0% by volume). A 50 μM geldanamycin solution was similarly prepared as a positive control.
Next, two individuals of 7-day-old Arabidopsis thaliana mutants grown in a ⅕ MS medium were soaked in 300 μL of the test solution of each example or the positive control at 22° C. for 6 hours. The Arabidopsis thaliana was washed with deionized water, then soaked in 200 μL of a 4-methylumbelliferyl-β-D-glucuronide hydrate solution containing a surfactant, and incubated at 22° C. for 16 hours in the dark. The fluorescence intensity of the supernatant was measured, and the amount of 4-methylumbelliferone (4-MU) production per plant was calculated. The calculated value of 4-MU was divided by the value of 4-MU of the positive control to calculate a ratio vs. positive control. A higher numerical value means that HSP was expressed at a larger level.
Each shikonin compound or alkannin compound (shown in Table 2) dissolved in DMSO was diluted to 1 μM, 10 μM, 100 μM, or 1000 μM (final concentration) with deionized water to prepare a test solution of each example (final concentration of DMSO: 1.0% by volume). A 50 μM geldanamycin solution was similarly prepared as a positive control. The other test procedures were performed in the same way as in Test Example 1. The calculated value of 4-MU was divided by the value of 4-MU of the positive control to calculate a ratio vs. positive control. […]

[5] = tested on: sprouted alfalfa; assay: Spindly growth suppression test of seedling; assay type: in vivo, Medicago sativa; conditions: 50 μL sprayed per individual, 10 days at 25° C.
Method: A spindly growth suppression test was conducted using sprouted alfalfa as a seedling and naphthoquinone compounds as quinone compounds. First, just-sprouted alfalfa (Medicago sativa of the family Leguminosae) was transplanted to a plastic cup containing vermiculite. Each naphthoquinone compound (shown in Table 5) dissolved in DMSO was diluted to 100 μM or 1000 μM (final concentration) with deionized water to prepare a test solution of each example (final concentration of DMSO: 1.0% by volume). An aqueous solution containing 1.0% by volume of DMSO was used as a test solution of a control. 50 μL of the test solution was sprayed per alfalfa individual. Then, cultivation was performed for 10 days in an incubator of 25° C., followed by hypocotyl length measurement.

| SMILES | Chlorophyll concentration [1] [mg/L] | Survival rate [2] [%] | Above-ground part weight [3] [g/plant] | Ratio of 4-MU amount vs. positive control ([4]; 1 μM) | Ratio of 4-MU amount vs. positive control ([4]; 10 μM) | Ratio of 4-MU amount vs. positive control ([4]; 100 μM) | Ratio of 4-MU amount vs. positive control ([4]; 1000 μM) | Hypocotyl length ([5]; 100 μM) [mm] | Hypocotyl length ([5]; 1000 μM) [mm] |
| --- | --- | --- | --- | --- | --- | --- | --- | --- | --- |
| O=C1C(Cl)=C(Cl)C(=O)c2ccccc21 [Example 6, 2,3-Dichloro-1,4-naphthoquinone] | 6.21 | 53 | 0.726 | 0.47 | 5.12 | 1.86 | 1.16 | – | – |
| O=C1C=CC(=O)c2c(O)ccc(O)c21 [Example 5, 5,8-Dihydroxy-1,4-naphthoquinone] | 6.66 | 92 | 0.653 | 0.48 | 2.49 | 1.96 | 0.78 | 14.6 | 15.2 |
| CC(C)=CC[C@@H](OC(=O)C(C)C)C1=CC(=O)c2c(O)ccc(O)c2C1=O [Example 15, Isobutyrylshikonin] | 6.29 | – | – | 0.03 | 1.79 | 1.19 | 1.23 | – | – |
| CC(=O)O[C@H](CC=C(C)C)C1=CC(=O)c2c(O)ccc(O)c2C1=O [Example 14, Acetylshikonin] | 5.73 | – | – | 0.05 | 1.03 | 1.00 | 0.81 | – | – |
| O=C1C(Cl)=C(Cl)C(=O)c2c(O)ccc(O)c21 [Example 7, 2,3-Dichloro-5,8-dihydroxy-1,4-naphthoquinone] | 6.12 | 88 | 0.677 | 0.80 | 5.91 | 1.72 | 0.95 | 18.1 | 14.6 |
| CC(C)=CC[C@@H](O)C1=CC(=O)c2c(O)ccc(O)c2C1=O [Example 13, Shikonin] | 6.28 | – | – | 0.04 | 0.92 | 1.52 | 0.85 | – | – |
| CC(C)=CC[C@@H](OC(=O)CC(C)(C)O)C1=CC(=O)c2c(O)ccc(O)c2C1=O [Example 17, β-Hydroxyisovalerylshikonin] | 5.57 | – | – | 0.10 | 0.71 | 0.80 | 0.25 | – | – |
